Experimental data as given in US8192962B2, “Processes for detecting toxic substances” (Daikin Industries, Ltd., priority 2001, dated 2012).

System: Transport facilitation protein genes
Assay: DNA chip mRNA expression in yeast, transport facilitation protein genes (Table 5)
Format: cell-based, Saccharomyces cerevisiae S288C
In short: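 Whole-genome yeast DNA chip hybridization (65° C., >12 h) of Cy-labeled cDNA from S288C cells exposed 2 h at 25° C. to a sub-lethal toxicant dose in YPD; value is intensity relative to chemical-free control.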

N#Cc1c(Cl)c(Cl)c(Cl)c(C#N)c1Cl [(9), 2,4,5,6-tetrachloro-1,3-benzenedicarbonitrile]
The level of expressed mRNA in the presence of chemical substance/The level of expressed mRNA in the absence of chemical substance (yeast gene YGR260W): 0.3 | The level of expressed mRNA in the presence of chemical substance/The level of expressed mRNA in the absence of chemical substance (yeast gene YGR281W): 2.7 | The level of expressed mRNA in the presence of chemical substance/The level of expressed mRNA in the absence of chemical substance (yeast gene YHL035C): 0.6 | The level of expressed mRNA in the presence of chemical substance/The level of expressed mRNA in the absence of chemical substance (yeast gene YHL040C): 1.1 | The level of expressed mRNA in the presence of chemical substance/The level of expressed mRNA in the absence of chemical substance (yeast gene YHL047C): 1.2 | The level of expressed mRNA in the presence of chemical substance/The level of expressed mRNA in the absence of chemical substance (yeast gene YHR026W): 1.1 | The level of expressed mRNA in the presence of chemical substance/The level of expressed mRNA in the absence of chemical substance (yeast gene YHR092C): 0.2 | The level of expressed mRNA in the presence of chemical substance/The level of expressed mRNA in the absence of chemical substance (yeast gene YHR094C): 0.3 | The level of expressed mRNA in the presence of chemical substance/The level of expressed mRNA in the absence of chemical substance (yeast gene YHR175W): 0.6 | The level of expressed mRNA in the presence of chemical substance/The level of expressed mRNA in the absence of chemical substance (yeast gene YIL006W): 0.9 | The level of expressed mRNA in the presence of chemical substance/The level of expressed mRNA in the absence of chemical substance (yeast gene YIL022W): 1.1 | The level of expressed mRNA in the presence of chemical substance/The level of expressed mRNA in the absence of chemical substance (yeast gene YIL056W): 1.2 | The level of expressed mRNA in the presence of chemical substance/The level of expressed mRNA in the absence of chemical substance (yeast gene YIL088C): 1.0 | The level of expressed mRNA in the presence of chemical substance/The level of expressed mRNA in the absence of chemical substance (yeast gene YJL034W): 2.8 | The level of expressed mRNA in the presence of chemical substance/The level of expressed mRNA in the absence of chemical substance (yeast gene YJL212C): 1.1 | The level of expressed mRNA in the presence of chemical substance/The level of expressed mRNA in the absence of chemical substance (yeast gene YJL219W): 4.0 | The level of expressed mRNA in the presence of chemical substance/The level of expressed mRNA in the absence of chemical substance (yeast gene YJR077C): 0.4 | The level of expressed mRNA in the presence of chemical substance/The level of expressed mRNA in the absence of chemical substance (yeast gene YJR106W): 2.0 | The level of expressed mRNA in the presence of chemical substance/The level of expressed mRNA in the absence of chemical substance (yeast gene YJR121W): 0.8 | The level of expressed mRNA in the presence of chemical substance/The level of expressed mRNA in the absence of chemical substance (yeast gene YKL016C): 1.3 | The level of expressed mRNA in the presence of chemical substance/The level of expressed mRNA in the absence of chemical substance (yeast gene YKL146W): 4.6 | The level of expressed mRNA in the presence of chemical substance/The level of expressed mRNA in the absence of chemical substance (yeast gene YKR039W): 1.9 | The level of expressed mRNA in the presence of chemical substance/The level of expressed mRNA in the absence of chemical substance (yeast gene YKR067W): 1.6 | The level of expressed mRNA in the presence of chemical substance/The level of expressed mRNA in the absence of chemical substance (yeast gene YKR105C): 1.0 | The level of expressed mRNA in the presence of chemical substance/The level of expressed mRNA in the absence of chemical substance (yeast gene YLL028W): 1.2 | The level of expressed mRNA in the presence of chemical substance/The level of expressed mRNA in the absence of chemical substance (yeast gene YLR081W): 0.1 | The level of expressed mRNA in the presence of chemical substance/The level of expressed mRNA in the absence of chemical substance (yeast gene YLR295C): 1.4 | The level of expressed mRNA in the presence of chemical substance/The level of expressed mRNA in the absence of chemical substance (yeast gene YLR348C): 2.1 | The level of expressed mRNA in the presence of chemical substance/The level of expressed mRNA in the absence of chemical substance (yeast gene YLR378C): 1.1 | The level of expressed mRNA in the presence of chemical substance/The level of expressed mRNA in the absence of chemical substance (yeast gene YMR011W): 0.0 | The level of expressed mRNA in the presence of chemical substance/The level of expressed mRNA in the absence of chemical substance (yeast gene YMR162C): 0.7 | The level of expressed mRNA in the presence of chemical substance/The level of expressed mRNA in the absence of chemical substance (yeast gene YMR203W): 0.7 | The level of expressed mRNA in the presence of chemical substance/The level of expressed mRNA in the absence of chemical substance (yeast gene YNL055C): 1.1 | The level of expressed mRNA in the presence of chemical substance/The level of expressed mRNA in the absence of chemical substance (yeast gene YNL259C): 1.6 | The level of expressed mRNA in the presence of chemical substance/The level of expressed mRNA in the absence of chemical substance (yeast gene YNR072W): 0.7 | The level of expressed mRNA in the presence of chemical substance/The level of expressed mRNA in the absence of chemical substance (yeast gene YOL119C): 5.0 | The level of expressed mRNA in the presence of chemical substance/The level of expressed mRNA in the absence of chemical substance (yeast gene YOL156W): 2.3 | The level of expressed mRNA in the presence of chemical substance/The level of expressed mRNA in the absence of chemical substance (yeast gene YOL163W): 7.5 | The level of expressed mRNA in the presence of chemical substance/The level of expressed mRNA in the absence of chemical substance (yeast gene YOR035C): 1.3 | The level of expressed mRNA in the presence of chemical substance/The level of expressed mRNA in the absence of chemical substance (yeast gene YOR130C): 2.0 | The level of expressed mRNA in the presence of chemical substance/The level of expressed mRNA in the absence of chemical substance (yeast gene YOR153W): 3.2 | The level of expressed mRNA in the presence of chemical substance/The level of expressed mRNA in the absence of chemical substance (yeast gene YOR270C): 0.4 | The level of expressed mRNA in the presence of chemical substance/The level of expressed mRNA in the absence of chemical substance (yeast gene YOR273C): 0.6 | The level of expressed mRNA in the presence of chemical substance/The level of expressed mRNA in the absence of chemical substance (yeast gene YOR316C): 1.6 | The level of expressed mRNA in the presence of chemical substance/The level of expressed mRNA in the absence of chemical substance (yeast gene YOR332W): 1.8 | The level of expressed mRNA in the presence of chemical substance/The level of expressed mRNA in the absence of chemical substance (yeast gene YOR348C): 0.5 | The level of expressed mRNA in the presence of chemical substance/The level of expressed mRNA in the absence of chemical substance (yeast gene YPL036W): 0.1 | The level of expressed mRNA in the presence of chemical substance/The level of expressed mRNA in the absence of chemical substance (yeast gene YPL134C): 0.6 | The level of expressed mRNA in the presence of chemical substance/The level of expressed mRNA in the absence of chemical substance (yeast gene YPL265W): 0.2 | The level of expressed mRNA in the presence of chemical substance/The level of expressed mRNA in the absence of chemical substance (yeast gene YPL271W): 0.6 | The level of expressed mRNA in the presence of chemical substance/The level of expressed mRNA in the absence of chemical substance (yeast gene YPR192W): 0.7 | The level of expressed mRNA in the presence of chemical substance/The level of expressed mRNA in the absence of chemical substance (yeast gene YPR194C): 0.5
